The results in this text go back to US7326540B2, “Methods for identifying compounds that modulate stabilization of secretase-associated proteins” (priority 2003, dated 2008).

For this test, the system named is E-cadherin. Description: E-cadherin proteolysis in A431 cells during STS-induced apoptosis (Western blot, C36 antibody). In kind it is cell-based, human. Conditions: zVAD-FMK 100 μM pre-incubated 30 min, then STS 6 hours. The procedure:
FIG. 11 provides digitized images and graphs showing that apoptosis enhances γ-secretase activity and levels of γ-secretase complex proteins. FIG. 11a: Apoptosis was induced in CAB, CHO-CC99/PS1 and CHO-APP 751/PS1 by STS treatment for 6 hours with or without zVAD (100 μM). Secreted Aβ1−total was measured by ELISA. […] Each bar represents the mean and SD of quadruplicate determinations. FIG. 11b: Western blot analysis with the antibody, A8717, detected endogenous APP-FL and overexpressed C99 in CHO-CC99/PS1cells, while overexpressed APP-FL and C83 were detected in CHO-APP751/PS1 cells. FIG. 11c: A431 human epithelial cells were pre-incubated for 30 min in the absence (−) or presence (+) of zVAD-FMK (100 μM), L-685,458 (0.5 μM) or GM6001 (2.5 μM). Cells were then treated with STS for 6 hours to induce apoptosis, and cell extracts were probed with anti-E-cadherin C36 antibody. FIG. 11d: Protein levels of γ-secretase complex components were monitored by Western blotting employing the anti-nicastrin, Ab14, PNT2, H2D2 antibodies. Densitometry analysis was performed using NIH image software. Each bar represents the mean and SEM of at least three experiments. FIG. 11e: Nicastrin was transiently transfected in the A431 cells. Western blot analysis for E-cadherin and γ-secretase complex component was performed as in FIG. 11c and FIG. 11d β-tubulin was used as loading control.
To confirm that apoptosis/caspase activation increases γ-secretase activity, we next examined the proteolysis of E-cadherin, another γ-secretase substrate (Marambaud, P. et al., Embo J21, 1948-56 (2002)) during apoptosis. We confirmed that caspase activation enhanced the production of E-Cad/CTF1 (Steinhusen, U. et al., J Biol Chem 276, 4972-80 (2001)), E-Cad/CTF2 (Marambaud, P. et al., 2002) (˜2- and 3-fold increase by densitometry analysis, respectively), and generated E-Cad/CTF3 (Marambaud, P. et al., 2002) (FIG. 11c). […]
(Immunoblotting shows a protein as a band on a membrane.)

Molecules are shown by their SMILES. Where a SMILES comes first, the peptide text is derived from it. The star is where a group is joined. Cbz = O=C(OCc1ccccc1)*; CH2F = FC*

For `COC(=O)C[C@H](NC(=O)[C@H](C)NC(=O)[C@@H](NC(=O)OCc1ccccc1)C(C)C)C(=O)CF` [zVAD] (Cbz-Val-Ala-Asp(OMe)-CH2F), the “generation of E-Cad/CTF3” value is listed as “inhibited”.
